Experimental data published in US5430005A, “Herbicidal compositions” (Monsanto Company, priority 1991, dated 1995).

Test: Natural pH of aqueous solution
Type: physicochemical

O=C(O)CNCP(=O)(O)O [N-phosphonomethylglycine]
natural pH of aqueous solution: ~4.7
